Test results as given in patent US9988600B2, “Cell culture media” (MERCK PATENT GMBH, priority 2013, dated 2018).
Structures can show the parent of a compound that is named as a salt.

Test: Effect of polymer embedding on components of DMEM F12 medium (embedded vs non-embedded form);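 further: qualitative label per medium component: Hygros denotes lower hygroscopicity of the embedded form versus the free form, NA denotes not applicable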
Format: physicochemical
Conditions: component of DMEM F12 medium embedded in polymer, compared to the non-embedded form
Source text: For all components the effect of polymer embedding is shown.
In Table 1, “Hygros” means that if the component is embedded according to the present invention and used in the media composition in its embedded form, the ability of said substance to attract and hold water molecules from the surrounding environment is reduced compared to the non-embedded form.

Compound | embedding effect
O=C(O)CCCCC1CCSS1 (racemic) [DL-alpha-lipoic acid] | Oxid
O=C(O)CCCC[C@@H]1SC[C@@H]2NC(=O)N[C@@H]21 [Biotin] | Stab
C[N+](C)(C)CCO.[Cl-] [Choline chloride] | Hygros
O.O.O.O.O.O=S(=O)([O-])[O-].[Cu+2] [Copper sulfate 5H2O] | Solu
O.O.O.O.O.O.O.O.O.O=[N+]([O-])[O-].O=[N+]([O-])[O-].O=[N+]([O-])[O-].[Fe+3] [Ferric nitrate 9H2O] | Solu
O.O.O.O.O.O.O.O=S(=O)([O-])[O-].[Fe+2] [Ferrous sulfate 7H2O] | Solu
Nc1nc2ncc(CNc3ccc(C(=O)N[C@@H](CCC(=O)O)C(=O)O)cc3)nc2c(=O)[nH]1 [Folic acid] | Stab
C[C@H](N)C(=O)O [L-Alanine] | Solu
NC(=O)C[C@H](N)C(=O)O.O [L-Asparagine H2O] | Solu
Cl.N[C@@H](CS)C(=O)O.O [L-Cysteine hydrochloride H2O] | Solu
Cl.Cl.N[C@@H](CSSC[C@H](N)C(=O)O)C(=O)O [L-Cystine 2HCl (mikronisiert), L-Cystine 2HCl (mikronisiert) aus 200635] | Solu
NC(=O)CC[C@H](N)C(=O)O [L-Glutamine] | Stab
Cl.N[C@@H](Cc1cnc[nH]1)C(=O)O.O [L-Histidine HCl H2O] | Solu
CC[C@H](C)[C@H](N)C(=O)O [L-Isoleucine] | Solu
CC(C)C[C@H](N)C(=O)O [L-Leucine] | Solu
Cl.NCCCC[C@H](N)C(=O)O [L-Lysine hydrochloride] | Solu

Compound | embedding effect
CSCC[C@H](N)C(=O)O [L-Methionine] | Solu
N[C@@H](Cc1ccccc1)C(=O)O [L-Phenylalanine] | Solu
N[C@@H](CO)C(=O)O [L-Serine] | Solu
C[C@@H](O)[C@H](N)C(=O)O [L-Threonine] | Solu
N[C@@H](Cc1c[nH]c2ccccc12)C(=O)O [L-Thryptophan] | Solu
N[C@@H](Cc1ccc([O-])cc1)C(=O)[O-].O.O.[Na+].[Na+] [L-Tyrosine 2Na] | Solu
CC(C)[C@H](N)C(=O)O [L-Valine] | Solu
CCCCC/C=C\C/C=C\CCCCCCCC(=O)O [Linoleic acid] | Oxid
NC(=O)c1cccnc1 [Niacinamide] | Stab
Cl.Cl.NCCCCN [Putrescine 2HCl] | Stab
Cc1ncc(CO)c(CO)c1O.Cl [Pyridoxine HCl] | Stab
Cc1cc2nc3c(=O)[nH]c(=O)nc-3n(C[C@H](O)[C@H](O)[C@H](O)CO)c2cc1C [Riboflavin] | Stab
CC(=O)C(=O)[O-].[Na+] [Sodium pyruvate] | Stab
Cc1ncc(C[n+]2csc(CCO)c2C)c(N)n1 [Thiamine HCl] | Stab
O.O.O.O.O.O.O.O=S(=O)([O-])[O-].[Zn+2] [Zinc sulafte 7H2O] | Solu
Vitamin B12 | Solu
